Columns and labels:
PrLZ expression = experiment: Androgen-activated PrLZ expression in prostate cancer cell lines after androgen deprivation; assay type: cell-based, human
Procedure: (§1) As an accessory sex organ, development and function of the prostate gland are controlled by androgens, through the mediation of the AR (Gelmann, J. Clin. Oncol. 20:3001-15, 2002). To investigate the possible regulation of PrLZ by androgens, we treated prostate cancer cell lines with an androgen analog, methyltrienolone (R1881, 1 nM), after androgen deprivation. Under cell culture conditions for androgen deprivation (phenol red-free RPMI1640 for 48 hours), there was a marked decline in PrLZ expression in all the prostate cancer cell lines. […] This culture system, or another like it, can be used to identify agents that modulate (by either increasing or decreasing) PrLZ expression.
Expression studies: The 502 bp PrLZ gene-specific fragment was subcloned after PCR amplification of the PrLZ cDNA in pBK-CMV, with primers: […], and […]. The amplified DNA was cloned into pGEM-T easy (Promega) and verified by DNA sequencing. The fragment was released from the vector by EcoRi and used in hybridization reactions. Standard protocols were used in Southern and Northern blot hybridizations (Sambrook et al., Molecular cloning, a laboratory manual, Clod Spring Harbor Laboratory Press, 2001), with α-^32P-dCTP used in the labeling step. […]

PSA expression = experiment: Androgen-activated PSA expression in LNCaP lineage cells; assay type: cell-based, human; conditions: LNCaP vs C4-2 and C4-2B4 cells
Procedure: as §1
By comparing the patterns of androgen-activated expression of PrLZ and PSA, it became clear that PrLZ was controlled by a regulatory mechanism that was different from the one controlling the PSA expression. […] Thus, along the transition from an AD to an AI state, there were heterologous changes in AR mediated gene regulation. While LNCAP derivative cell lines lost the mechanism of AR-controlled PSA production, they maintained the capability to regulate some other androgen responsive genes, including PrLZ.

[1] = tested on: expression of TPD52 members; conditions: HL-60 and K-562 cells; cited from earlier work

| Structure (SMILES) | PrLZ expression upon androgen treatment (PrLZ expression; R1881 1 nM after androgen deprivation (phenol red-free RPMI1640, 48 hours), prostate cancer cell lines) | PrLZ transcription upon androgen treatment (PrLZ expression; all LNCaP lineage cells (LNCaP, C4-2, C4-2B4)) | PSA expression upon androgen treatment (PSA expression) | Expression of TPD52 members upon treatment [1] |
| --- | --- | --- | --- | --- |
| C[C@]1(O)CC[C@H]2[C@@H]3CCC4=CC(=O)CCC4=C3C=C[C@@]21C [R1881, methyltrienolone] | dramatically activated the expression of the PrLZ | marked PrLZ transcription | androgen-dependent up-regulation only in LCNaP cells | – |
| CCCCCCCCCCCCCC(=O)O[C@@H]1[C@@H](C)[C@@]2(O)[C@@H](C=C(CO)C[C@]3(O)C(=O)C(C)=C[C@@H]23)[C@H]2C(C)(C)[C@]12OC(C)=O [TPA, 12-O-trtradecanoylphorbol-13-acetate] | – | – | – | inhibited |

Reference: patent US20070015149A1, “Prlz regulatory elements in the treatment of disease and the discovery of therapeutics” (priority 2002, published 2007)
